Assay results as given in patent EP0818744A2, “Process for selecting candidate drug compounds” (Proteus Molecular Design Limited, priority 1996, dated 1998).
Read-outs that look alike come from different tables or passages of the source. Non-standard residues stand in square brackets, D forms with d. Residues, ends and D or L forms follow the SMILES beside them. *: point of attachment. dPhe(4-Br) = N[C@H](Cc1ccc(Br)cc1)C(=O)O; Agmatine = N=C(N)NCCCCN*

Molecular target: thrombin (Homo sapiens, UniProt P00734)
Experiment: colorimetric microplate assay with synthetic peptide substrates, inhibition of thrombin
Assay type: biochemical
Protocol: The compounds were tested for inhibition of thrombin and trypsin using a colorimetric microplate assay with synthetic peptide substrates as described by Tapparelli, J. Biol. Chem. 268:4734 (1993). […]

[1] = values not in parentheses (purified compounds, error less than 10%), '-' = not active, read-out: Ki Thrombin

Row | Compound | Ki [1] [nM] | Ki (most active compound, read-out: Ki) [nM]
1 | NC(N)=NCCCCNC(=O)[C@@H]1CCCN1C(=O)[C@H](N)Cc1ccccc1 [Compound A2B1] (H-[dF]-Pro-Agmatine) | 120 | 
2 | NCCCCCNC(=O)[C@@H]1CCCN1C(=O)[C@H](N)Cc1ccccc1 [Compound A2B9] | 690 | 
3 | N=C(N)NCCCCNC(=O)[C@@H]1CCCN1C(=O)[C@H](N)Cc1ccc(Br)cc1 [Compound A3B1] (H-[dPhe(4-Br)]-Pro-Agmatine) |  | 41
